Reference: patent US8921385B2, “5-substituted quinazolinone derivatives and compositions comprising and methods of using the same” (Celgene Corporation, priority 2006, dated 2014)

Row | Compound | melting point [°C]
1 | Cc1nc2cccc(CNC(=O)c3cccc(F)c3)c2c(=O)n1C1CCC(=O)NC1=O (stereo not drawn) [Example 6.52, N-[3-(2,6-Dioxo-Piperidin-3-yl)-2-Methyl-4-Oxo-3,4-Dihydro-Quinazolin-5-ylmethyl]-3-Fluoro-Benzamide] | 240 to 242
2 | Cc1nc2cccc(CNC(=O)c3ccc(C(F)(F)F)cc3)c2c(=O)n1C1CCC(=O)NC1=O (stereo not drawn) [Example 6.53, N-[3-(2,6-Dioxo-Piperidin-3-yl)-2-Methyl-4-Oxo-3,4-Dihydro-Quinazolin-5-ylmethyl]-4-Trifluoromethyl-Benzamide] | 253 to 255
3 | Cc1nc2cccc(CNC(=O)c3ccc(OC(F)(F)F)cc3)c2c(=O)n1C1CCC(=O)NC1=O (stereo not drawn) [Example 6.54, N-[3-(2,6-Dioxo-Piperidin-3-yl)-2-Methyl-4-Oxo-3,4-Dihydro-Quinazolin-5-ylmethyl]-4-Trifluoromethoxy-Benzamide] | 258 to 260
4 | Cc1nc2cccc(CNC(=O)c3ccc(Cl)c(Cl)c3)c2c(=O)n1C1CCC(=O)NC1=O (stereo not drawn) [Example 6.56, 3,4-Dichloro-N-[3-(2,6-Dioxo-Piperidin-3-yl)-2-Methyl-4-Oxo-3,4-Dihydro-Quinazolin-5-ylmethyl]-Benzamide] | 271 to 273

The next lines start with the values.

Row | melting point [°C] | Compound
5 | 247 to 249 | Cc1nc2cccc(CNC(=O)c3ccccc3)c2c(=O)n1C1CCC(=O)NC1=O (stereo not drawn) [Example 6.55, N-[3-(2,6-Dioxo-Piperidin-3-yl)-2-Methyl-4-Oxo-3,4-Dihydro-Quinazolin-5-ylmethyl]-Benzamide]
6 | 233 to 235 | Cc1nc2cccc(CNC(=O)c3cccc(C(F)(F)F)c3)c2c(=O)n1C1CCC(=O)NC1=O (stereo not drawn) [Example 6.57, N-[3-(2,6-Dioxo-Piperidin-3-yl)-2-Methyl-4-Oxo-3,4-Dihydro-Quinazolin-5-ylmethyl]-3-Trifluoromethyl-Benzamide]
